Data as given in patent publication US10426761B2, “Method for treatment of disease caused or aggravated by microorganisms or relieving symptoms thereof” (ARMS Pharmaceutical LLC, priority 2011, dated 2019).

Legend:
S. oralis = assay: MIC, CLSI reference method; type: cell-based; conditions: 24 h
Procedure: (§1) Cells were allowed to grow in the presence or absence (growth control) of the test agents for 24 hours. The MIC for each agent was defined as the concentration that induced a 100% growth inhibition (compared to no-drug control).

Y. enterocolitica = assay: MIC, CLSI reference method; type: cell-based; conditions: 24 h
Procedure: as §1

S. mitis = assay: MIC, CLSI reference method; type: cell-based; conditions: 24 h
Procedure: as §1

S. mutans = assay: MIC, CLSI reference method; type: cell-based; conditions: 24 h
Procedure: as §1

S. pyogenes = assay: MIC, CLSI reference method; type: cell-based; conditions: 24 h
Procedure: as §1

S. pneumonia = assay: MIC, CLSI reference method; type: cell-based; conditions: 24 h
Procedure: as §1

S. salivarius = assay: MIC, CLSI reference method; type: cell-based; conditions: 24 h, 100% growth inhibition
Procedure: as §1

P. gingivalis = assay: MIC, CLSI reference method; type: cell-based; conditions: 24 h
Procedure: as §1

C. albicans = assay: MIC, CLSI microdilution (Candida); type: cell-based
C. glabrata = assay: MIC, CLSI microdilution (Candida); type: cell-based
C. tropicalis = assay: MIC, CLSI microdilution (Candida); type: cell-based
C. krusei = assay: MIC, CLSI microdilution (Candida); type: cell-based
F. nucleatum = assay: MIC, CLSI reference method; type: cell-based, Fusobacterium nucleatum; conditions: 24 h
Procedure: as §1

[1] = test system: Streptococcus salivarius, Candida albicans; assay: in vitro filter insert-based barrier model (glycerin / xanthan gum)
Procedure: To identify further examples of concentrations of glycerin and xanthan gum that can form a barrier effective in preventing the passage of microorganisms, different concentrations of the gum xanthan gum and humectant glycerin were tested (5%-95% glycerin; 0.005%-0.5% xanthan gum) singly and in combination using an in vitro filter insert-based barrier model. […] Glycerin or xanthan gum or their combinations (100 μL aliquots) were overlaid on the surface of the filter to form a barrier. […] Next, 5×10^4 cells of either bacteria or fungi were applied on top of the formed barrier in the filter inserts. Next, we placed these filter inserts on the surface of agar medium (Brain Heart Infusion (BHI) medium for bacteria, Sabouraud Dextrose (SD) medium for fungi) in 6-well plates. The plates along with the filter inserts were incubated overnight for 24 hours at 37° C. The plates were monitored for the presence of bacterial or fungal growth CFUs (colony forming units) in the agar medium as well as in the filter insert.

| MIC (S. oralis) | MIC (Y. enterocolitica) | MIC (S. mitis) | MIC (S. mutans) | MIC (S. pyogenes) | MIC (S. pneumonia) | MIC (S. salivarius) | MIC (P. gingivalis) | MIC (C. albicans) | MIC (C. glabrata) | MIC (C. tropicalis) | MIC (C. krusei) | MIC (F. nucleatum) | SMILES | concentration at which a barrier was formed when tested alone [1] |
| --- | --- | --- | --- | --- | --- | --- | --- | --- | --- | --- | --- | --- | --- | --- |
| 19.6 μg/mL chlorhexidine | 19.6 μg/mL chlorhexidine | 19.6 μg/mL chlorhexidine | 19.6 μg/mL chlorhexidine | 19.6 μg/mL chlorhexidine | 19.6 μg/mL chlorhexidine | 19.6 μg/mL chlorhexidine | 19.6 μg/mL chlorhexidine | 19.6 μg/mL chlorhexidine | 19.6 μg/mL chlorhexidine | 19.6 μg/mL chlorhexidine | 19.6 μg/mL chlorhexidine | 19.6 μg/mL chlorhexidine | [H]/N=C(\N/C(=N/[H])NCCCCCCNC(=N)NC(=N)Nc1ccc(Cl)cc1)Nc1ccc(Cl)cc1 [Chlorhexidine, chlorhexidine gluconate] | – |
| – | – | – | – | – | – | – | – | – | – | – | – | – | OCC(O)CO [glycerin] | greater than or equal to 55% |
